Measurements from article PMC4848466, “Insights into the activation mechanism of class I HDAC complexes by inositol phosphates” (Nature Communications, 2016).

Tests used:
Format in all cases: biochemical
D99A HDAC1 mutant = biological target: T1, D99A HDAC1 mutant (Homo sapiens, UniProt Q13330+Q13547, D99A); assay: Deacetylase activity of D99A HDAC1 mutant (electrophoretic mobility shift assay, caliper platform); settings: addition of InsP6
T1 construct: Full-length HDAC1 and residues 162–354 of MTA1 were cloned into pcDNA3 vectors; residues 162–354 of MTA1 were cloned into pcDNA3 vectors; FLAG tag with TEV protease cleavage site (cleaved yes); made in house
Procedure: Figure 5 Inhibition of HDAC1:MTA1 by a novel peptide-based inhibitor. (a) Inhibition curve of HDAC1:MTA1 by the histone H4 peptide H4K16Hx. (b)The position of H4K16Hx (pink) bound to the active site of HDAC1 (purple). The sidechain of HDAC1 residue D99 undergoes a significant rearrangement (indicated by arrow) to coordinate binding of the peptide (apo-HDAC1 shown in grey). […] HDAC assays were performed using an electrophoretic mobility shift assay on the caliper platform. Error bars indicate±s.e.m. (n=3).

HDAC1:MTA1 complex = biological target: T2, HDAC1:MTA1 complex (Homo sapiens, UniProt Q13330+Q13547); assay: Activation of HDAC1:MTA1 deacetylase activity by inositol phosphates (BOC-Lys-AMC assay)
T2 construct: Full-length HDAC1 and residues 162–354 of MTA1 were cloned into pcDNA3 vectors; residues 162–354 of MTA1 were cloned into pcDNA3 vectors; FLAG tag with TEV protease cleavage site (cleaved yes); made in house; host or cells: HEK293F cells (co-transfection, pcDNA3)
Procedure: (§1) HDAC activity of the protein complex was measured using an HDAC assay with a BOC-Lys-AMC substrate. 50 nM HDAC3:SMRT or 50 nM HDAC1:MTA1 was incubated with 100 μM BOC-Lys-AMC substrate in a final volume of 50 μl buffer A (50 mM Tris pH 7.5, 50 mM NaCl, 5% Glycerol), in a black 96-well plate for 30 min at 37 °C.
(§2) To test the ability of inositol phosphates and derivatives to activate the complex, 50 nM HDAC3:SMRT (which had been stripped of its endogenous co-purified inositol phosphate) or 50 nM HDAC1:MTA1 was incubated with inositol phosphate or analogue for 30 min at 37 °C before the HDAC activity was measured. All measurements were performed in triplicate and data analysed using GraphPad Prism (version 6.0, GraphPad Software, Inc).

HDAC3:SMRT complex [1] = biological target: T3, HDAC3:SMRT complex (Homo sapiens, UniProt O15379); assay: Activation of HDAC3:SMRT deacetylase activity by inositol phosphates (BOC-Lys-AMC assay); settings: BOC-Lys-AMC assay; one-site binding fit of HDAC activity vs inositol phosphate concentration; read-out: Kdapp (apparent Kd from activation titration)
T3 construct: Full-length HDAC3, and residues 350–480 of SMRT were cloned into pcDNA3 vectors; residues 350–480 of SMRT were cloned into pcDNA3 vectors; FLAG tag with TEV protease cleavage site (cleaved yes); made in house; host or cells: HEK293F cells (co-transfection, pcDNA3)
Procedure: (§3) To understand the stereochemical basis underlying the activation of HDAC3 by inositol phosphates we investigated the ability of a range of inositol phosphates and derivatives to enhance the activity of HDAC3 in deacetylase assays. To achieve this we used an assay based on the complex of HDAC3 with an extended SMRT construct which is stable in the absence of inositol phosphate.
as §1, §2

HDAC3:SMRT complex [2] = biological target: T4, HDAC3:SMRT complex (Homo sapiens, UniProt O15379+Q9Y618); assay: as above
T4 construct: Full-length HDAC3, and residues 350–480 of SMRT were cloned into pcDNA3 vectors; residues 350–480 of SMRT were cloned into pcDNA3 vectors; FLAG tag with TEV protease cleavage site (cleaved yes); made in house; host or cells: HEK293F cells (co-transfection, pcDNA3)
Procedure: as §3, §1, §2

HDAC1:MTA1 = biological target: T5, HDAC1:MTA1 (Homo sapiens, UniProt Q13330+Q13547); assay: Michaelis-Menten enzyme kinetics on Caliper EZ Reader with H4K16ac peptide; settings: H4 12–18K16ac peptide; in the presence of the inositol phosphate
T5 construct: Full-length HDAC1 and residues 162–354 of MTA1 were cloned into pcDNA3 vectors; residues 162–354 of MTA1 were cloned into pcDNA3 vectors; FLAG tag with TEV protease cleavage site (cleaved yes); made in house; host or cells: HEK293F cells (co-transfection, pcDNA3)
Text: (§4) To explore further the differences between the two complexes we established a more physiological, real-time kinetic assay using substrates based on the tails of histones H4 and H3. The peptides tested were; H4 12–18(K16ac), H3 23–29(K27ac) and H3 6–12(K9ac). […] HDAC3:SMRT is most catalytically active against H3 23–29(K27ac) (Supplementary Fig. 7), whereas HDAC1:MTA1 is most catalytically active against H4 12–18(K16ac) (Fig. 4d). In both cases an approximate 3-fold greater kcat is observed for the preferred versus non-preferred substrate, in the absence of inositol phosphate. […] The net effect of both inositol phosphates tested was between a two and fivefold increase in catalytic efficiency (kcat/Km) (Fig. 4c,d, Supplementary Fig. 7).
(§5) Michaelis–Menten kinetics were determined using a HDAC assay on the Caliper EZ Reader II system (Caliper Life Sciences, http://www.caliperls.com). To assess the effect of inositol phosphate, 20 nM HDAC3:SMRT or 80 nM HDAC1:MTA1 were pre-mixed with InsP6 before dilution and addition of fluorescein-labelled H4K16Ac substrate. Reactions were carried out in duplicate in 30 μl reaction volumes, performed at room temperature in 50 mM Tris pH 7.5, 50 mM NaCl, 5% glycerol. Data was analysed using GraphPad Prism (version 6.0).

HDAC3:SMRT = HDAC3:SMRT (Homo sapiens, UniProt O15379+Q9Y618); assay: as above; set-up: Full-length HDAC3, and residues 350–480 of SMRT were cloned into pcDNA3 vectors; residues 350–480 of SMRT were cloned into pcDNA3 vectors; FLAG tag with TEV protease cleavage site (cleaved yes); made in house; host or cells: HEK293F cells (co-transfection, pcDNA3); settings: H4 12–18K16ac peptide; in the presence of the inositol phosphate
Text: as §4, §5

T4 sequence (O15379 whole entry, the tested form may be a part): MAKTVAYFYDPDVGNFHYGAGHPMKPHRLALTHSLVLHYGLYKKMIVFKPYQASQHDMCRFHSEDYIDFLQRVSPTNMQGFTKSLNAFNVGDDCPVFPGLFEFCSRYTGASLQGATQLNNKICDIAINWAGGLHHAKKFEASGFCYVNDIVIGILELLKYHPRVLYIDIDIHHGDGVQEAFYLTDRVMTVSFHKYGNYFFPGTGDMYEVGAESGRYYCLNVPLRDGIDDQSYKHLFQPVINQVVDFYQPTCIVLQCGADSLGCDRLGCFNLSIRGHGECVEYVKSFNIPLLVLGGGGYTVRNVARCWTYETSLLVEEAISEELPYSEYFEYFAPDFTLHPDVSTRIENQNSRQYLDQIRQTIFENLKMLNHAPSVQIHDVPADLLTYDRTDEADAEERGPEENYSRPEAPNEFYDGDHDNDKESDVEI
T4 sequence (Q9Y618 350-480): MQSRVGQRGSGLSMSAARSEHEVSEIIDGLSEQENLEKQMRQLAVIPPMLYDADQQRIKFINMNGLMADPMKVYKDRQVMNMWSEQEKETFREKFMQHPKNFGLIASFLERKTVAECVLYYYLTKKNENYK
T2 sequence (Q13547 whole entry, the tested form may be a part): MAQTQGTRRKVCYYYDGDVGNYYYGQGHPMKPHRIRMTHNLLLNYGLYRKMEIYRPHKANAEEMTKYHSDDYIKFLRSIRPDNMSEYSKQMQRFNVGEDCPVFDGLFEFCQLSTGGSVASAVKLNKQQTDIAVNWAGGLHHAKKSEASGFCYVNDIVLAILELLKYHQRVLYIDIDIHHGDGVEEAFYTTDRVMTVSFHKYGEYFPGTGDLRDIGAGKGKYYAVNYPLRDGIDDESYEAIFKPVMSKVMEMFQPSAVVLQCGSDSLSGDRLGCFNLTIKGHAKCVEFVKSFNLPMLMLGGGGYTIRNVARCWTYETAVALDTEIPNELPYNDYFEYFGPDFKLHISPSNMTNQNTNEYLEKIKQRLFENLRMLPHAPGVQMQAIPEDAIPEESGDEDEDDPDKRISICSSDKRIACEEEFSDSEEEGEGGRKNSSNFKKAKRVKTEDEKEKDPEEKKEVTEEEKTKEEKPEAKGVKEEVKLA
T2 sequence (Q13330 162-354): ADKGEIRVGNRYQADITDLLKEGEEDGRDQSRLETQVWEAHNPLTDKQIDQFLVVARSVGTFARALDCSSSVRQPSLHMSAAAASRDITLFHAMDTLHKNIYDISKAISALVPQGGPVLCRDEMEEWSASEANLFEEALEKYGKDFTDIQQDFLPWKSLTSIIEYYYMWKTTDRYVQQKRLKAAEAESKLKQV
T3 sequence (O15379 whole entry, the tested form may be a part): as the sequence (O15379 whole entry, the tested form may be a part) above
T3 sequence (Q9Y618 350-480, further chain): as the sequence (Q9Y618 350-480) above
HDAC3:SMRT, sequence (O15379 whole entry, the tested form may be a part): as the sequence (O15379 whole entry, the tested form may be a part) above
HDAC3:SMRT, sequence (Q9Y618 350-480): as the sequence (Q9Y618 350-480) above
T1 sequence (Q13547 whole entry D99A, the tested form may be a part): as the sequence (Q13547 whole entry, the tested form may be a part) above, with D99A counted along it
T1 sequence (Q13330 162-354): as the sequence (Q13330 162-354) above
T5 sequence (Q13547 whole entry, the tested form may be a part): as the sequence (Q13547 whole entry, the tested form may be a part) above
T5 sequence (Q13330 162-354): as the sequence (Q13330 162-354) above

- rescue of deacetylase activity of D99A mutant (D99A HDAC1 mutant): activity is not rescued
- activation of HDAC1:MTA1 complex (HDAC1:MTA1 complex): can be activated
- Kd (HDAC1:MTA1 complex; read-out: Kdapp (apparent Kd from activation titration)): 4000 nM
- Kd (HDAC3:SMRT complex [1]): 600 nM
- HDAC3 activation relative to maximal Ins(1,4,5,6)P4-stimulated activity (HDAC3:SMRT complex [2]; BOC-Lys-AMC assay, titration / maximal activation): same degree as Ins(1,4,5,6)P4
- increase in apparent affinity compared with Ins(1,4,5,6)P4 (HDAC3:SMRT complex [2]; ratio of apparent Kd values): 16 fold
- kcat (HDAC1:MTA1): 1.01 s⁻¹
- kcat (HDAC3:SMRT): 2.59 s⁻¹
Structure (SMILES): O=P(O)(O)O[C@H]1[C@H](OP(=O)(O)O)[C@@H](OP(=O)(O)O)[C@H](OP(=O)(O)O)[C@@H](OP(=O)(O)O)[C@H]1OP(=O)(O)O [InsP6, inositol hexaphosphate]
